Experimental data reported in patent US20240228506A1, “RIPK1 INHIBITORS AND METHODS OF USE” (Merck Sharp & Dohme LLC, priority 2021, published 2024).

The compounds below were run against T1, GST-RIPK1 (recombinant GST-RIPK1 kinase domain (residues 1-327)) (Homo sapiens, UniProt Q13546) (assay: RIPK1-ADP-Glo enzymatic assay). Details: 25 nM GST-RIPK1, 300 μM ATP, 3 μM dephosphorylated-MBP; 30 minutes pre-incubation, 150 minutes reaction; ten-point titration.
T1 construct: recombinant GST-RIPK1 kinase domain (residues 1-327) enzyme; made in house; host or cells: baculovirus-transfected Sf21 insect cells
T1 sequence (Q13546 1-327): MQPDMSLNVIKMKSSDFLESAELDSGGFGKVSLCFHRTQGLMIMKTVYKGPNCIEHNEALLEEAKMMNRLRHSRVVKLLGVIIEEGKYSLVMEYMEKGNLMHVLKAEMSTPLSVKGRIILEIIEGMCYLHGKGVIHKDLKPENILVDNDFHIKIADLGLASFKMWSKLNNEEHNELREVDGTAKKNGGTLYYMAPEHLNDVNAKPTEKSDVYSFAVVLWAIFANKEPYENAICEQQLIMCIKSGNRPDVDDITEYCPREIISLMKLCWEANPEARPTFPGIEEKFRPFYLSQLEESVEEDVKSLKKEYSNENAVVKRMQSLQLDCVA
Type: biochemical
Description: The enzymatic activity of RIPK1 is measured using an assay derived from ADP-Glo kit (Promega™), which provides a luminescent-based ADP detection system. Specifically, the ADP generated by RIPK1 kinase is proportionally detected as luminescent signals in a homogenous fashion. In this context, the assessment of the inhibitory effect of small molecules (EC50) is measured by the effectiveness of the compounds to inhibit the ATP to ADP conversion by RIPK1. In this assay, the potency (EC50) of each compound was determined from a ten-point (1:3 serial dilution; top compound concentration of 100000 nM) titration curve using the following outlined procedure. To each well of a white ProxiPlus 384 well-plate, […] of compound (1% DMSO in final assay volume of 3 μL) was dispensed, followed by the addition of 2 μL of 1× assay buffer (25 mM Hepes 7.3, 20 mM MgCl2, 50 mM NaCl, 1 mM DTT, 0.005% Tween20, and 0.02% BSA) containing 37.5 nM of GST-RIPK1 (recombinant GST-RIPK1 kinase domain (residues 1-327) enzyme produced from baculovirus-transfected Sf21 cells: MW=62 kDa). Plates were placed in an ambient temperature humidified chamber for a 30 minutes pre-incubation with compound. Subsequently, each reaction was initiated by the addition of 1 μL 1×assay buffer containing 900 μM ATP and […]. The final reaction in each well of 3 μL consists of 25 nM of GST-RIPK1, 300 μM ATP, and 3 μM dephosphorylated-MBP. Kinase reactions were allowed to proceed for 150 minutes prior to adding ADP-Glo reagents per Promega's outlined kit protocol. Dose-response curves were generated by plotting percent effect (% product conversion; Y-axis) vs. Log10 compound concentrations (X-axis). EC50 values were calculated using a non-linear regression, four-parameters sigmoidal dose-response model.

First: COC(C)(C(=O)N1C[C@@H]2C[C@H]1c1cncc(C#N)c1O2)C1CC1 (mixture of isomers) [Compound 1-62, (2S,5S)-4-(2-(S and R)-cyclopropyl-2-methoxypropanoyl)-2,3,4,5-tetrahydro-2,5-methanopyrido[3,4-f][1,4]oxazepine-9-carbonitrile]
Second: CCC(C)(OC)C(=O)N1C[C@@H]2C[C@H]1c1cncc(C#N)c1O2 (single isomer, unassigned) [Compound 1-16, (2S,5S)-4-[2(S or R)-methoxy-2-methylbutanoyl]-2,3,4,5-tetrahydro-2,5-methanopyrido[3,4-f][1,4]oxazepine-9-carbonitrile]
The IC50 of the first is 44-fold higher: 0.444 µM for the first, 0.01 µM for the second. The second is the more potent here.

`CC1(C(=O)N2C[C@@H]3C[C@H]2c2cncc(C#N)c2O3)CCCO1` (mixture of isomers) [Compound 1-64, (2S,5S)-4-(2-(S and R)-methyltetrahydrofuran-2-carbonyl)-2,3,4,5-tetrahydro-2,5-methanopyrido[3,4-f][1,4]oxazepine-9-carbonitrile] and `CC1(C(=O)N2C[C@@H]3C[C@H]2c2cncc(C#N)c2O3)CCOC1` (mixture of isomers) [Compound 1-67, (2S,5S)-4-(3-(S and R)-methyltetrahydrofuran-3-carbonyl)-2,3,4,5-tetrahydro-2,5-methanopyrido[3,4-f][1,4]oxazepine-9-carbonitrile] are within 1.5-fold of each other in IC50: 0.729 µM for the first, 0.64 µM for the second.

Going from `CCC(C)(OC)C(=O)N1C[C@@H]2C[C@H]1c1cncc(C#N)c1O2` (single isomer, unassigned) [Compound 1-17, (2S,5S)-4-[2(S or R)-methoxy-2-methylbutanoyl]-2,3,4,5-tetrahydro-2,5-methanopyrido[3,4-f][1,4]oxazepine-9-carbonitrile] to `CCC(C)(C(=O)N1C[C@@H]2C[C@H]1c1cncc(C#N)c1O2)C(F)F` (single isomer, unassigned) [Compound 1-84, (2S,5S)-4-(2-(R or S)-(difluoromethyl)-2-methylbutanoyl)-2,3,4,5-tetrahydro-2,5-methanopyrido[3,4-f][1,4]oxazepine-9-carbonitrile], the IC50 rises from 0.024 µM to 0.047 µM (2-fold). The first is the more potent here.

First: CC1(C(=O)N2C[C@@H]3C[C@H]2c2cncc(C#N)c2O3)CC1(F)F (single isomer, unassigned) [Compound 1-28, (2S,5S)-4-[(S or R)-2,2-difluoro-1-methylcyclopropane-1-carbonyl]-2,3,4,5-tetrahydro-2,5-methanopyrido[3,4-f][1,4]oxazepine-9-carbonitrile]
Second: CC1(C(=O)N2C[C@@H]3C[C@H]2c2cncc(C#N)c2O3)CCCC1(F)F (single isomer, unassigned) [Compound 1-38]
The IC50 of the first is 9.6-fold higher: 0.201 µM for the first, 0.021 µM for the second.

Going from `CC1(C(=O)N2C[C@@H]3C[C@H]2c2cncc(C#N)c2O3)CC1(F)F` (single isomer, unassigned) [Compound 1-29, (2S,5S)-4-[(S or R)-2,2-difluoro-1-methylcyclopropane-1-carbonyl]-2,3,4,5-tetrahydro-2,5-methanopyrido[3,4-f][1,4]oxazepine-9-carbonitrile] to `CC1(C(=O)N2C[C@@H]3C[C@H]2c2cncc(C#N)c2O3)CCCC1(F)F` (single isomer, unassigned) [Compound 1-39], the IC50 falls from 0.376 µM to 0.031 µM (12-fold). The second is the more potent here.

`N#Cc1cncc2c1O[C@H]1C[C@@H]2N(C(=O)C23CCCC2C3)C1` (single isomer, unassigned) [Compound 1-32, (2S,5S)-4-[(1R,5R or 1S,5S)-bicyclo[3.1.0]hexane-1-carbonyl]-2,3,4,5-tetrahydro-2,5-methanopyrido[3,4-f][1,4]oxazepine-9-carbonitrile] and `N#Cc1cncc2c1O[C@H]1C[C@@H]2N(C(=O)C23CCC(C2)OC3)C1` (single isomer, unassigned) [Compound 1-50, (2S,5S)-4-[(S or R)-2-oxabicyclo[2.2.1]heptane-4-carbonyl]-2,3,4,5-tetrahydro-2,5-methanopyrido[3,4-f][1,4]oxazepine-9-carbonitrile] are within 1.5-fold of each other in IC50: 0.29 µM for the first, 0.3 µM for the second.

Going from `N#Cc1cncc2c1O[C@H]1C[C@@H]2N(C(=O)C23CCCC2C3)C1` (single isomer, unassigned) [Compound 1-33, (2S,5S)-4-[(1R,5R or 1S,5S)-bicyclo[3.1.0]hexane-1-carbonyl]-2,3,4,5-tetrahydro-2,5-methanopyrido[3,4-f][1,4]oxazepine-9-carbonitrile] to `N#Cc1cncc2c1O[C@H]1C[C@@H]2N(C(=O)C23CCC(C2)OC3)C1` (single isomer, unassigned) [Compound 1-51, (2S,5S)-4-[(S or R)-2-oxabicyclo[2.2.1]heptane-4-carbonyl]-2,3,4,5-tetrahydro-2,5-methanopyrido[3,4-f][1,4]oxazepine-9-carbonitrile], the IC50 rises from 0.094 µM to 0.367 µM (3.9-fold).

First: CC1(C(=O)N2C[C@@H]3C[C@H]2c2cncc(C#N)c2O3)Cc2cccc(Cl)c21 (single isomer, unassigned) [Compound 1-37, (2S,5S)-4-(5-chloro-7(R or S)-methylbicyclo[4.2.0]octa-1,3,5-triene-7-carbonyl)-2,3,4,5-tetrahydro-2,5-methanopyrido[3,4-f][1,4]oxazepine-9-carbonitrile]
Second: CC1(C(=O)N2C[C@@H]3C[C@H]2c2cncc(C#N)c2O3)CCCC(F)(F)C1 (single isomer, unassigned) [Compound 1-40, (2S,5S)-4-[3,3-difluoro-1(R or S)-methylcyclohexane-1-carbonyl]-2,3,4,5-tetrahydro-2,5-methanopyrido[3,4-f][1,4]oxazepine-9-carbonitrile]
The IC50 of the first is 2.2-fold higher: 0.136 µM for the first, 0.062 µM for the second.

`CC1(C(=O)N2C[C@@H]3C[C@H]2c2cncc(C#N)c2O3)CCCC(F)(F)C1` (single isomer, unassigned) [Compound 1-41, (2S,5S)-4-[3,3-difluoro-1-(R or S)-methylcyclohexane-1-carbonyl]-2,3,4,5-tetrahydro-2,5-methanopyrido[3,4-f][1,4]oxazepine-9-carbonitrile] and `N#Cc1cncc2c1O[C@H]1C[C@@H]2N(C(=O)C23CCCC2C3(F)F)C1` (single isomer, unassigned) [Compound 1-86, (2S,5S)-4-((1R,5S or 1S,5R)-6,6-difluorobicyclo[3.1.0]hexane-1-carbonyl)-2,3,4,5-tetrahydro-2,5-methanopyrido[3,4-f][1,4]oxazepine-9-carbonitrile] are within 1.5-fold of each other in IC50: 0.027 µM for the first, 0.033 µM for the second.

Compared with `N#Cc1cncc2c1O[C@H]1C[C@@H]2N(C(=O)C23CCC(CC2(F)F)C3)C1` (single isomer, unassigned) [Compound 1-48, (2S,5S)-4-[(S or R)-2,2-difluorobicyclo[2.2.1]heptane-1-carbonyl]-2,3,4,5-tetrahydro-2,5-methanopyrido[3,4-f][1,4]oxazepine-9-carbonitrile], `CCC(C)(C(=O)N1C[C@@H]2C[C@H]1c1cncc(C#N)c1O2)C(F)F` (single isomer, unassigned) [Compound 1-85, (2S,5S)-4-(2-(R or S)-(difluoromethyl)-2-methylbutanoyl)-2,3,4,5-tetrahydro-2,5-methanopyrido[3,4-f][1,4]oxazepine-9-carbonitrile] is 3.8-fold higher in IC50: 0.005 µM for the first, 0.019 µM for the second.

For `N#Cc1cncc2c1O[C@H]1C[C@@H]2N(C(=O)C23CCC(CC2(F)F)C3)C1` (single isomer, unassigned) [Compound 1-49, (2S,5S)-4-[(S or R)-2,2-difluorobicyclo[2.2.1]heptane-1-carbonyl]-2,3,4,5-tetrahydro-2,5-methanopyrido[3,4-f][1,4]oxazepine-9-carbonitrile], the IC50 was 0.07 µM.
